{
  "source": "paper PMC6268262",
  "about": "“Improved Antileishmanial Activity of Dppz through Complexation with Antimony(III) and Bismuth(III): Investigation of the Role of the Metal” (Molecules, 2012)",
  "key": {"[1]": {"test_system": "L. amazonensis (SbR) promastigotes, BA199Sb2700.2", "experiment": "Antileishmanial activity assay, promastigote growth, Sb-resistant mutant", "format": "cell-based, Leishmania amazonensis", "settings": "72 h, read-out: IC50 (μM) ± SEM", "experimental": "(§1) Leishmania (Leishmania) amazonensis (strain MHOM/BR/1989/BA199) and Leishmania (Leishmania)infantum chagasi (strain MCAN/BR/2002/BH400) promastigotes were maintained in minimum essential culture medium (α-MEM) (Gibco, Invitrogen, Grand Island, NY, USA) supplemented with 10% (v/v) heat inactivated fetal calf serum (Cultilab, Campinas, SP, Brazil), […] kanamycin, […] ampicillin, 2 mM L-glutamine, 5 mg/mL hemin, 5 mM biopterin, (Sigma-Aldrich), pH 7.0 and incubated at 25 °C. L. amazonensis and L. infantum chagasi were selected for Sb(III) resistance as previously decribed. The Sb(III)-resistant mutants L. amazonensis BA199Sb2700.2 and L. infantum chagasi BH400Sb2700.2 were selected in 25 cm^2 flasks containing 5 mL of α-MEM in the presence of increasing Sb(III) concentrations up to 2,700 μM.\n(§2) Complexes 1 and 2 were evaluated in vitro for their activity against both Sb(III)-sensitive and -resistant Leishmania parasites. Log-phase L. amazonensis and L. infantum chagasi promastigotes (1 × 10^6 parasites/mL) were seeded in 24-wells cell culture plates with 1.5 mL of α-MEM, incubated under shaking at 25 °C during 72 h in the presence of several concentrations of complex 1 or 2. Controls were performed using cultures in the presence of potassium antimonyl tartrate, SbCl3, BiCl3 and dppz itself. Non-treated parasites were established for growth comparison. Stock solutions of dppz, its complexes, SbCl3 and BiCl3 were dissolved in DMSO (5 M) and diluted in α-MEM cell culture medium to obtain the range of tested concentrations. […] For drug susceptibility assay, Leishmania growth curves were constructed by measuring absorbance at 600 nm. […] All experiments were done at least three times as independent experiments performed in triplicate.\n(§3) The IC50 and CC50 values were calculated by nonlinear regression using the software GraphPad Prism 5.0. The acceptable level of significance was 95% (p < 0.05)."}, "[2]": {"test_system": "L. infantum chagasi (WT) promastigotes, strain BH400", "experiment": "Antileishmanial activity assay, promastigote growth (absorbance 600 nm), wild-type strain", "format": "cell-based, Leishmania infantum chagasi", "settings": "72 h, 25 °C", "experimental": "as §1, §2, §3"}, "[3]": {"test_system": "L. infantum chagasi (SbR) promastigotes, BH400Sb2700.2", "experiment": "Antileishmanial activity assay, promastigote growth, Sb-resistant mutant", "format": "cell-based, Leishmania infantum chagasi", "settings": "72 h, read-out: IC50 (μM) ± SEM", "experimental": "as §1, §2, §3"}, "[4]": {"test_system": "L. amazonensis (WT) promastigotes, strain BA199", "experiment": "Antileishmanial activity assay, promastigote growth, wild-type strain", "format": "cell-based, Leishmania amazonensis", "settings": "72 h, 25 °C", "experimental": "as §1, §2, §3"}, "[5]": {"experiment": "n-Octanol/water partition coefficient, Shake-Flask method", "format": "physicochemical", "settings": "phosphate buffer pH 6.8", "experimental": "Then, three different partition system were prepared by adding these solutions to water-saturated octanol, in octanol/water volume ratios, 1:1, 1:2 and 2:1 in duplicate. The mixtures were vortexed for 10 min and then centrifuged for 5 min. The partition coefficients were determined using the absorbance of complexes 1 and 2. Calculated dppz log P value was obtained from the program ALOGPS 2.143 available on line."}, "[6]": {"test_system": "mouse peritoneal macrophages", "experiment": "Cytotoxicity assay against peritoneal macrophages (MTT)", "format": "cell-based", "experimental": "(§4) Macrophages were obtained by lavage of peritoneal cavity of mice with 10 mL cold RPMI without FBS. After washing, the cell suspension (4.0 × 10^6/mL) was seeded (0.1 mL) in 96-well flat bottom plates. Macrophages were allowed to adhere for 2 h and non-adherent cells were removed by washing with RPMI. Then, the studied compounds were added to the wells at concentrations ranging from 1 to 20 μM and the cells were further cultured in RPMI-1640 supplemented with 10% FBS for 24 h at 37 °C in a humidified 5% CO2 atmosphere. Thereafter, the medium was replaced with fresh RPMI containing 0.5 mg/mL of MTT and the plates were incubated for additional 4 h. Supernatants were aspirated and the formazan crystals formed were dissolved in 100 μL of DMSO. After 15 min of incubation at room temperature, absorbance of solubilized MTT formazan product was spectrophotometrically measured at 570 nm.\nas §3"}, "[7]": {"test_system": "Leishmania promastigotes", "experiment": "microbe, parasite or virus in culture", "format": "cell-based, Leishmania infantum chagasi and Leishmania amazonensis", "settings": "for concentration in whose presence Sb-resistant lines failed to grow: L. infantum chagasi BH400 Sb2700.2 and L. amazonensis BA199 Sb2700.2", "experimental": "as §1, §2"}, "[8]": {"experiment": "Stability of the complexes by UV absorption spectroscopy", "format": "physicochemical", "settings": "10 µmol·L^−1 in DMSO, DMSO-containing water and octanol, 0 to 4 h", "experimental": "The stability of the complexes was checked by UV absorption spectroscopy. For this purpose, UV absorption spectra were registered at different time intervals (from 0 to 4 h) for dppz and complexes 1 and 2 at 10 µmol·L^−1 in DMSO, DMSO-containing water and octanol."}, "[9]": {"experiment": "Cytotoxicity assay against peritoneal macrophages (MTT)", "format": "cell-based, mouse", "settings": "mouse peritoneal macrophages, MTT, 24 h", "experimental": "as §4, §3"}, "[10]": {"settings": "L. amazonensis (SbR) promastigotes, 25 °C"}, "[11]": {"settings": "L. infantum chagasi (SbR) promastigotes, 25 °C"}, "[12]": {"settings": "listed as dppzSbCl3, read-out: IC50 (μM) ± SEM"}, "[13]": {"settings": "listed as dppzBiCl3, read-out: IC50 (μM) ± SEM"}},
  "note": "Read-outs that look alike come from different tables or passages of the source.",
  "data": [
    {"compound": "O=C([O-])[C@H]([O-])[C@@H]([O-])C(=O)[O-].O=C([O-])[C@H]([O-])[C@@H]([O-])C(=O)[O-].[K+].[K+].[Sb+3].[Sb+3]", "note": "[TA, potassium antimonyl tartrate]", "values": [
      {"measurement": "IC50", "setting": "[1]; [10]", "result": "> 2700", "unit": "µM"},
      {"measurement": "IC50", "setting": "[2]; read-out: IC50 (μM) ± SEM", "result": "100 ± 3", "unit": "µM"},
      {"measurement": "IC50", "setting": "[3]; [11]", "result": "> 2700", "unit": "µM"},
      {"measurement": "IC50", "setting": "[4]; read-out: IC50 (μM) ± SEM", "result": "83 ± 1", "unit": "µM"}
    ]},
    {"compound": "[Sb(dppz)Cl3] [complex 1]", "values": [
      {"measurement": "IC50", "setting": "[1]; [10]", "result": "0.92 ± 0.02", "unit": "µM"},
      {"measurement": "IC50", "setting": "[2]; [12]", "result": "0.62 ± 0.01", "unit": "µM"},
      {"measurement": "IC50", "setting": "[2]; read-out: IC50 (μM) ± SEM", "result": "~0.6", "unit": "µM"},
      {"measurement": "log P (octanol/water partition coefficient)", "setting": "[5]", "result": "0.94 ± 0.24"},
      {"measurement": "IC50", "setting": "[3]; [11]", "result": "0.57 ± 0.01", "unit": "µM"},
      {"measurement": "IC50", "setting": "[4]; [12]", "result": "0.95 ± 0.02", "unit": "µM"},
      {"measurement": "IC50", "setting": "[4]; read-out: IC50 (μM) ± SEM", "result": "~1", "unit": "µM"},
      {"measurement": "CC50", "setting": "[6]; read-out: CC50: concentration of dppz which is cytotoxic against 50% of macrophages, mouse peritoneal macrophages, MTT, 24 h", "result": 7, "unit": "µM"},
      {"measurement": "concentration in whose presence Sb-resistant lines failed to grow", "setting": "[7]", "result": "≤ 1.12", "unit": "µM"},
      {"measurement": "UV absorption spectra as a function of time (stability)", "setting": "[8]", "result": "did not show significant changes as a function of time"}
    ]},
    {"compound": "[Bi(dppz)Cl3] [complex 2]", "values": [
      {"measurement": "IC50", "setting": "[1]; [10]", "result": "1.12 ± 0.01", "unit": "µM"},
      {"measurement": "IC50", "setting": "[2]; [13]", "result": "0.59 ± 0.01", "unit": "µM"},
      {"measurement": "IC50", "setting": "[2]; read-out: IC50 (μM) ± SEM", "result": "~0.6", "unit": "µM"},
      {"measurement": "log P (octanol/water partition coefficient)", "setting": "[5]", "result": "0.98 ± 0.17"},
      {"measurement": "IC50", "setting": "[3]; [11]", "result": "0.61 ± 0.02", "unit": "µM"},
      {"measurement": "IC50", "setting": "[4]; [13]", "result": "1.07 ± 0.03", "unit": "µM"},
      {"measurement": "IC50", "setting": "[4]; read-out: IC50 (μM) ± SEM", "result": "~1", "unit": "µM"},
      {"measurement": "concentration in whose presence Sb-resistant lines failed to grow", "setting": "[7]", "result": "≤ 1.12", "unit": "µM"},
      {"measurement": "UV absorption spectra as a function of time (stability)", "setting": "[8]", "result": "did not show significant changes as a function of time"}
    ]},
    {"compound": "[Cl][Bi]([Cl])[Cl]", "note": "[BiCl3, Bi(III) chloride]", "values": [
      {"measurement": "IC50", "setting": "[1]; [10]", "result": "> 500", "unit": "µM"},
      {"measurement": "IC50", "setting": "[2]; read-out: IC50 (μM) ± SEM", "result": "563 ± 2", "unit": "µM"},
      {"measurement": "IC50", "setting": "[3]; [11]", "result": "> 500", "unit": "µM"},
      {"measurement": "IC50", "setting": "[4]; read-out: IC50 (μM) ± SEM", "result": "621 ± 2", "unit": "µM"}
    ]},
    {"compound": "[Cl][Sb]([Cl])[Cl]", "note": "[SbCl3, antimony trichloride]", "values": [
      {"measurement": "IC50", "setting": "[1]; [10]", "result": "1503 ± 2", "unit": "µM"},
      {"measurement": "IC50", "setting": "[2]; read-out: IC50 (μM) ± SEM", "result": "341 ± 2", "unit": "µM"},
      {"measurement": "IC50", "setting": "[3]; [11]", "result": "462 ± 3", "unit": "µM"},
      {"measurement": "IC50", "setting": "[4]; read-out: IC50 (μM) ± SEM", "result": "362 ± 2", "unit": "µM"}
    ]},
    {"compound": "c1ccc2nc3c4cccnc4c4ncccc4c3nc2c1", "note": "[Dppz, dipyrido[3,2-a:2',3'-c]phenazine]", "values": [
      {"measurement": "IC50", "setting": "[1]; Leishmania amazonensis", "result": "2 ± 0.05", "unit": "µM"},
      {"measurement": "IC50", "setting": "[2]; Leishmania infantum, read-out: IC50 (μM) ± SEM", "result": "0.81 ± 0.04", "unit": "µM"},
      {"measurement": "IC50", "setting": "[3]; Leishmania infantum", "result": "1.86 ± 0.08", "unit": "µM"},
      {"measurement": "IC50", "setting": "[4]; Leishmania amazonensis, read-out: IC50 (μM) ± SEM", "result": "> 2", "unit": "µM"},
      {"measurement": "CC50 at 24 h", "setting": "[9]", "result": 12.5, "unit": "µM"},
      {"measurement": "SI: selective index", "setting": "[6]; ratio between CC50 in murine macrophages and IC50 in L. infantum chagasi (WT)", "result": 15.4},
      {"measurement": "IC50", "setting": "[7]; Leishmania, read-out: IC50 range over strains", "result": "0.8 to 2", "unit": "µM"}
    ]}
  ]
}
